Measured values published in patent publication US20240279278A1, “NMU RECEPTOR 2 AGONISTS” (Boehringer Ingelheim International GmbH, priority 2023, published 2024).
Residues, ends and D or L forms follow the SMILES beside them.

Tests used:
human NMUR1 receptor = target: T1, human NMUR1 receptor (Homo sapiens, UniProt Q9HB89); assay: IP1 Gq HTRF assay, activation of human NMUR1 in buffer; type: cell-based; settings: CHO-K1 cells expressing human NMUR1, stimulation buffer with 0.1% BSA; read-out: EC50 (hNMUR1) buffer
T1 construct: expressed in transfected cells; host or cells: CHO-K1
T1 sequence (Q9HB89 1-426): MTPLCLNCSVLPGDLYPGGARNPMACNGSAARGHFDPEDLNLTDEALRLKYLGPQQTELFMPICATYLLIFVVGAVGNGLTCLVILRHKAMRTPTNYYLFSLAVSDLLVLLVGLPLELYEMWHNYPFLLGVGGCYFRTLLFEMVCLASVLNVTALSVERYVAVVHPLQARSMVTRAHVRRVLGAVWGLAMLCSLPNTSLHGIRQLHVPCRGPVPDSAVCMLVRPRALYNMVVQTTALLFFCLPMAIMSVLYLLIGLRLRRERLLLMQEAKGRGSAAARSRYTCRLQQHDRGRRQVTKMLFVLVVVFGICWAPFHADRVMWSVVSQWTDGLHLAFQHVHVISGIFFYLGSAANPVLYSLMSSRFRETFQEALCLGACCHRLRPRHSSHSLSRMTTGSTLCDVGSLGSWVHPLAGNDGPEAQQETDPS
Method in brief: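 IP-One HTRF competition (665/620 nm ratio) read after 1 h agonist exposure at 37 °C in pH 7.4 HEPES/HBSS stimulation buffer containing 50 mM LiCl, 0.1% BSA, 1% DMSO. Cells: CHO-K1 stably expressing human NMUR2 or NMUR1. EC50 by 4-parameter nonlinear regression of 8-point curves.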

human NMUR2 receptor = human NMUR2 receptor (Homo sapiens, UniProt Q9GZQ4); assay: IP1 Gq HTRF assay, activation of human NMUR2 in human plasma; type: cell-based; parameters: expressed in transfected cells; host or cells: CHO-K1; settings: CHO-K1 cells expressing human NMUR2, 100% human plasma; read-out: EC50 (hNMUR2) human plasma
Method in brief: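 EC50 obtained via 4-parameter sigmoidal regression of HTRF IP-One signal (665 nm/620 nm), which falls as intracellular IP1 rises. Stimulation: 1 h, 37° C, peptides in human plasma plus 50 mM LiCl, 1% DMSO final, on NMUR2-expressing CHO-K1 cells, 8 concentrations.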

Chain of human NMUR2 receptor (Q9GZQ4 whole entry): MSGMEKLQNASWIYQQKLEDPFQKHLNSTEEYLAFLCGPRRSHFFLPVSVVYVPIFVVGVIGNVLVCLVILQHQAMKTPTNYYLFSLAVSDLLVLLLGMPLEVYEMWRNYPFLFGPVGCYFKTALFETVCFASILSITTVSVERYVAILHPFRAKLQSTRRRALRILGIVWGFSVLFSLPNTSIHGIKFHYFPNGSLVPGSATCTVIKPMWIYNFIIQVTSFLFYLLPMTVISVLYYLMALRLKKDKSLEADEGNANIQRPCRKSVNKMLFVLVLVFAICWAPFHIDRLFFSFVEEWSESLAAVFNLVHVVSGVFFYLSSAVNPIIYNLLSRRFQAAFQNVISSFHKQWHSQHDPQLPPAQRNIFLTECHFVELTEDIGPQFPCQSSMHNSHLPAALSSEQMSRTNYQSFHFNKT

Row | Compound | EC50 (human NMUR1 receptor) [nM] | EC50 (human NMUR2 receptor) [nM]
1 | CCCC[C@H](NC(=O)[C@H](CC(C)C)N(C)C(=O)[C@H](Cc1ccccc1)NC(=O)[C@H](Cc1ccc(O)cc1)NC(=O)CN1CCN(CCNC(=O)CN(C)C(=O)CN(C)C(=O)CN(C)C(=O)CN(C)C(=O)CN(C)C(=O)CN(C)C(=O)CN(C)C(=O)CN(C)C(=O)CN(C)C(=O)CN(C)C(=O)CN(C)C(=O)CN(C)C(=O)CC[C@H](NC(=O)CC[C@H](NC(=O)CC[C@H](NC(=O)CCCCCCCCCCCCCCCCC(=O)O)C(=O)O)C(=O)O)C(=O)O)CC1)C(=O)N[C@@H](CCCNC(=N)N)C(=O)N(C)[C@@H](C)C(=O)N[C@@H](CCCNC(=N)N)C(=O)NCC(N)=O [Compound 12, C18DA-gGlu3-Sar12-AEPipAc-Tyr-Phe-NMeLeu-Nle-Arg-NMeAla-Arg-Gly-NH2] | 1000 | 12.9
2 | CCCC[C@H](NC(=O)[C@H](CC(C)C)N(C)C(=O)[C@H](Cc1ccccc1)NC(=O)[C@H](Cc1ccc(O)cc1)NC(=O)CN1CCN(CCNC(=O)CN(C)C(=O)CN(C)C(=O)CN(C)C(=O)CN(C)C(=O)CN(C)C(=O)CN(C)C(=O)CN(C)C(=O)CN(C)C(=O)CN(C)C(=O)CC[C@H](NC(=O)CC[C@H](NC(=O)CC[C@H](NC(=O)CCCCCCCCCCCCCCCCC(=O)O)C(=O)O)C(=O)O)C(=O)O)CC1)C(=O)N[C@@H](CCN)C(=O)N(C)[C@@H](C)C(=O)N[C@@H](CCCNC(=N)N)C(=O)NCC(N)=O [Compound 28, C18DA-gGlu3-Sar9-AEPipAc-Tyr-Phe-NMeLeu-Nle-Dbu-NMeAla-Arg-Gly-NH2] (HELM PEPTIDE1{[O=C(O)CCCCCCCCCCCCCCCCC(=O)[*:2]].[gGlu].[gGlu].[gGlu].[Sar].[Sar].[Sar].[Sar].[Sar].[Sar].[Sar].[Sar].[Sar].[O=C(CN1CCN(CCN[*:1])CC1)[*:2]].Y.F.[meL].[Nle].[Dab].[meA].R.G.[am]}$$$$V2.0) | > 1000 | 10.8
3 | CCCC[C@H](NC(=O)[C@H](CC(C)C)N(C)C(=O)[C@H](Cc1ccccc1)NC(=O)[C@H](Cc1ccc(O)cc1)NC(=O)CN1CCN(CCNC(=O)CN(C)C(=O)CN(C)C(=O)CN(C)C(=O)CN(C)C(=O)CN(C)C(=O)CN(C)C(=O)CN(C)C(=O)CN(C)C(=O)CN(C)C(=O)CN(C)C(=O)CN(C)C(=O)CN(C)C(=O)CC[C@H](NC(=O)CC[C@H](NC(=O)CC[C@H](NC(=O)CCCCCCCCCCCCCCCCC(=O)O)C(=O)O)C(=O)O)C(=O)O)CC1)C(=O)N[C@@H](CCCN)C(=O)N(C)[C@@H](C)C(=O)N[C@@H](CCCNC(=N)N)C(=O)NCC(N)=O [Compound 20, C18DA-gGlu3-Sar12-AEPipAc-Tyr-Phe-NMeLeu-Nle-Orn-NMeAla-Arg-Gly-NH2] | > 1000 | 12.1
4 | CCCC[C@H](NC(=O)[C@H](CC(C)C)N(C)C(=O)[C@H](Cc1ccccc1)NC(=O)[C@H](Cc1ccc(O)cc1)NC(=O)CN1CCN(CCNC(=O)CN(C)C(=O)CN(C)C(=O)CN(C)C(=O)CN(C)C(=O)CN(C)C(=O)CN(C)C(=O)CN(C)C(=O)CN(C)C(=O)CN(C)C(=O)CN(C)C(=O)CN(C)C(=O)CN(C)C(=O)CN(C)C(=O)CN(C)C(=O)CN(C)C(=O)CC[C@H](NC(=O)CC[C@H](NC(=O)CC[C@H](NC(=O)CCCCCCCCCCCCCCCCC(=O)O)C(=O)O)C(=O)O)C(=O)O)CC1)C(=O)N[C@@H](CCN)C(=O)N(C)[C@@H](C)C(=O)N[C@@H](CCCNC(=N)N)C(=O)NCC(N)=O [Compound 23, C18DA-gGlu3-Sar15-AEPipAc-Tyr-Phe-NMeLeu-Nle-Dbu-NMeAla-Arg-Gly-NH2] (HELM PEPTIDE1{[O=C(O)CCCCCCCCCCCCCCCCC(=O)[*:2]].[gGlu].[gGlu].[gGlu].[Sar].[Sar].[Sar].[Sar].[Sar].[Sar].[Sar].[Sar].[Sar].[Sar].[Sar].[Sar].[Sar].[Sar].[Sar].[O=C(CN1CCN(CCN[*:1])CC1)[*:2]].Y.F.[meL].[Nle].[Dab].[meA].R.G.[am]}$$$$V2.0) | > 1000 | 11.1
5 | CCCC[C@H](NC(=O)[C@H](CC(C)C)N(C)C(=O)[C@H](Cc1ccccc1)NC(=O)[C@H](Cc1ccc(O)cc1)NC(=O)CN1CCN(CCNC(=O)CN(C)C(=O)CN(C)C(=O)CN(C)C(=O)CN(C)C(=O)CN(C)C(=O)CN(C)C(=O)CN(C)C(=O)CN(C)C(=O)CN(C)C(=O)CN(C)C(=O)CN(C)C(=O)CN(C)C(=O)CN(C)C(=O)CN(C)C(=O)CN(C)C(=O)CC[C@H](NC(=O)CC[C@H](NC(=O)CC[C@H](NC(=O)CCCCCCCCCCCCCCCCCCC(=O)O)C(=O)O)C(=O)O)C(=O)O)CC1)C(=O)N[C@@H](CCCN)C(=O)N1CCC[C@H]1C(=O)N[C@@H](CCCNC(=N)N)C(=O)NCC(N)=O [Compound 1, C20DA-gGlu3-Sar15-AEPipAc-Tyr-Phe-NMeLeu-Nle-Orn-Pro-Arg-Gly-NH2] (HELM PEPTIDE1{[O=C(O)CCCCCCCCCCCCCCCCCCC(=O)[*:2]].[gGlu].[gGlu].[gGlu].[Sar].[Sar].[Sar].[Sar].[Sar].[Sar].[Sar].[Sar].[Sar].[Sar].[Sar].[Sar].[Sar].[Sar].[Sar].[O=C(CN1CCN(CCN[*:1])CC1)[*:2]].Y.F.[meL].[Nle].[Orn].P.R.G.[am]}$$$$V2.0) | 890 | 2.8
6 | CCCC[C@H](NC(=O)[C@H](CC(C)C)N(C)C(=O)[C@H](Cc1ccccc1)NC(=O)[C@H](Cc1ccc(O)cc1)NC(=O)CN1CCN(CCNC(=O)CN(C)C(=O)CN(C)C(=O)CN(C)C(=O)CN(C)C(=O)CN(C)C(=O)CN(C)C(=O)CN(C)C(=O)CN(C)C(=O)CN(C)C(=O)CN(C)C(=O)CN(C)C(=O)CN(C)C(=O)CC[C@H](NC(=O)CC[C@H](NC(=O)CC[C@H](NC(=O)CCCCCCCCCCCCCCCCCCC(=O)O)C(=O)O)C(=O)O)C(=O)O)CC1)C(=O)N[C@@H](CCN)C(=O)N1CCC[C@H]1C(=O)N[C@@H](CCCNC(=N)N)C(=O)NCC(N)=O [Compound 8, C20DA-gGlu3-Sar12-AEPipAc-Tyr-Phe-NMeLeu-Nle-Dbu-Pro-Arg-Gly-NH2] | 1000 | 9
7 | CCCC[C@H](NC(=O)[C@H](CC(C)C)N(C)C(=O)[C@H](Cc1ccccc1)NC(=O)[C@H](Cc1ccc(O)cc1)NC(=O)CN1CCN(CCNC(=O)CN(C)C(=O)CN(C)C(=O)CN(C)C(=O)CN(C)C(=O)CN(C)C(=O)CN(C)C(=O)CN(C)C(=O)CN(C)C(=O)CN(C)C(=O)CN(C)C(=O)CN(C)C(=O)CN(C)C(=O)CN(C)C(=O)CN(C)C(=O)CN(C)C(=O)CC[C@H](NC(=O)CC[C@H](NC(=O)CC[C@H](NC(=O)CCCCCCCCCCCCCCCCCCC(=O)O)C(=O)O)C(=O)O)C(=O)O)CC1)C(=O)N[C@@H](CCCNC(=N)N)C(=O)N1CCC[C@H]1C(=O)N[C@@H](CCCNC(=N)N)C(=O)NCC(N)=O [Compound 9, C20DA-gGlu3-Sar15-AEPipAc-Tyr-Phe-NMeLeu-Nle-Arg-Pro-Arg-Gly-NH2] (HELM PEPTIDE1{[O=C(O)CCCCCCCCCCCCCCCCCCC(=O)[*:2]].[gGlu].[gGlu].[gGlu].[Sar].[Sar].[Sar].[Sar].[Sar].[Sar].[Sar].[Sar].[Sar].[Sar].[Sar].[Sar].[Sar].[Sar].[Sar].[O=C(CN1CCN(CCN[*:1])CC1)[*:2]].Y.F.[meL].[Nle].R.P.R.G.[am]}$$$$V2.0) | 220 | 5.8
8 | CCCC[C@H](NC(=O)[C@H](CC(C)C)N(C)C(=O)[C@H](Cc1ccccc1)NC(=O)[C@H](Cc1ccc(O)cc1)NC(=O)CN1CCN(CCNC(=O)CN(C)C(=O)CN(C)C(=O)CN(C)C(=O)CN(C)C(=O)CN(C)C(=O)CN(C)C(=O)CN(C)C(=O)CN(C)C(=O)CN(C)C(=O)CN(C)C(=O)CN(C)C(=O)CN(C)C(=O)CN(C)C(=O)CN(C)C(=O)CN(C)C(=O)CC[C@H](NC(=O)CC[C@H](NC(=O)CC[C@H](NC(=O)CCCCCCCCCCCCCCCCCCC(=O)O)C(=O)O)C(=O)O)C(=O)O)CC1)C(=O)N[C@@H](CCN)C(=O)N1CCC[C@H]1C(=O)N[C@@H](CCCNC(=N)N)C(=O)NCC(N)=O [Compound 42, C20DA-gGlu3-Sar15-AEPipAc-Tyr-Phe-NMeLeu-Nle-Dbu-Pro-Arg-Gly-NH2] (HELM PEPTIDE1{[O=C(O)CCCCCCCCCCCCCCCCCCC(=O)[*:2]].[gGlu].[gGlu].[gGlu].[Sar].[Sar].[Sar].[Sar].[Sar].[Sar].[Sar].[Sar].[Sar].[Sar].[Sar].[Sar].[Sar].[Sar].[Sar].[O=C(CN1CCN(CCN[*:1])CC1)[*:2]].Y.F.[meL].[Nle].[Dab].P.R.G.[am]}$$$$V2.0) | 1500 | 5.8
9 | CCCC[C@H](NC(=O)[C@H](CC(C)C)N(C)C(=O)[C@H](Cc1ccccc1)NC(=O)[C@H](Cc1ccc(O)cc1)NC(=O)CN1CCN(CCNC(=O)CN(C)C(=O)CN(C)C(=O)CN(C)C(=O)CN(C)C(=O)CN(C)C(=O)CN(C)C(=O)CN(C)C(=O)CN(C)C(=O)CN(C)C(=O)CN(C)C(=O)CN(C)C(=O)CN(C)C(=O)CC[C@H](NC(=O)CC[C@H](NC(=O)CC[C@H](NC(=O)CCCCCCCCCCCCCCCCCCC(=O)O)C(=O)O)C(=O)O)C(=O)O)CC1)C(=O)N[C@@H](CCCNC(=N)N)C(=O)N1CCC[C@H]1C(=O)N[C@@H](CCCNC(=N)N)C(=O)NCC(N)=O [Compound 6, C20DA-gGlu3-Sar12-AEPipAc-Tyr-Phe-NMeLeu-Nle-Arg-Pro-Arg-Gly-NH2] | 120 | 6.9
